Patent US20170128407A1, “NOVEL FORMULATIONS” (priority 2015, published 2017)
≈ marks a conversion by molar mass, not a printed value. Like-named read-outs stand apart in the source and are kept apart here.

What was measured:
[1] = BPO solubility in water and in binary mixtures with surfactants; conditions: water
From the text: The concentration of all surfactants was fixed at 6% w/w active.

[2] = cited from earlier work
[3] = in water and propylene glycol, storage; cited from earlier work
[4] = Chemical stability of BPO in wash formulations, shelf life prediction; format: physicochemical; conditions: wash formulations with increasing sorbitol concentrations
Protocol: BPO stability in the formulations of the present invention were assessed over time at 25° C./60% RH and 30° C./65% RH using environmentally controlled chambers. Specifically formulations containing 2.5% BPO or 10% BPO in glass vials were placed on stability, and monitored for BPO degradation.
Chemical stability of the BPO in surfactant based wash products is a challenge due to increased solubility of the BPO in these systems.

Compound: O=C(OOC(=O)c1ccccc1)c1ccccc1 [BPO, Benzoyl peroxide]
- solubility [1]: 3 µg/mL (≈ 12.4 µM)
- half-life of BPO in solution in water ([2]; pH 4): 11.87 h
- half-life of BPO in solution in water ([2]; pH 7): 5.20 h
- stability of benzoyl peroxide in suspension (dispersed form) [3]: not degraded after 90 days

Compound: OC[C@@H](O)[C@@H](O)[C@H](O)[C@@H](O)CO [sorbitol, D-Sorbitol]
- effect on BPO stability (benzoic acid generated) [4]: improve BPO stability
